Reference: patent publication US20100125085A1, “PYRIDOINDOLE MODULATORS OF NMDA RECEPTOR AND ACETYLCHOLINESTERASE” (AUSPEX PHARMACEUTICALS, INC., priority 2008, published 2010)

Key:
[1] = sites of metabolism of dimebolin in humans; type: in vivo; conditions: discoveries made in our laboratory and literature
[2] = cited from earlier work

For `Cc1ccc2c(c1)c1c(n2CCc2ccc(C)nc2)CCN(C)C1` [dimebolin, 2,8-dimethyl-5-[2-(6-methyl-pyridin-3-yl)-ethyl]-2,3,4,5-tetrahydro-1H-pyrido[4,3-b]indole], the sites of metabolism [1] is listed as “metabolized in humans at the pyridyl methyl group, the tolyl methyl group, the ethylene linker, and the N-methyl group”, the common adverse events ([2]; >5% of patients and at least twice the incidence of placebo) is listed as “dry mouth, depressed mood/depression, and hyperhidrosis” and the “patients reporting at least 1 serious adverse effect” value ([2]; double-blind study, dimebolin group) is listed as 3%. The “patients reporting at least 1 adverse effect” value ([2]; double-blind study, patients taking dimebolin) was 79%.
